# Patent US8735387B2, “Oxazolopyrimidines as Edg-1 receptor agonists” (Sanofi, priority 2008, dated 2014)
# Target: T1, human Edg-1 receptor (Homo sapiens, UniProt P21453)
# T1 construct: expressed in transfected cells; membrane preparation
# Assay: GTP-γ-S assay using human Edg-1 receptors (scintillation proximity assay, membrane preparation from CHO Flp-In cell line)
# Format: biochemical
# Conditions: example compound at 10 μM; relative to 10 μM S1P; GTP-γ-S SPA, human Edg-1 membranes
# Text: Determination of the Pharmacological Activity A) GTP-γ-S Assay Using Human Edg-1 Receptors
# In order to determine the Edg-1 receptor activation by the compounds of the invention, a GTP-γ-S (guanosine 5′-[γ-thio]triphosphate) assay for G-protein coupled receptor binding based on the scintillation proximity assay principle was used, employing a cell membrane preparation from a CHO Flp-In cell line which constitutively overexpresses the human Edg-1 receptor.
# The Flp-In™ expression system (Invitrogen, cat. no. K6010-01) allows the generation of stable mammalian cell lines into which the gene of interest has been integrated through homologous recombination at a specific genomic location called Flp Recombination Target (FRT) site by means of a Flp recombinase encoded by the pOG44 expression plasmid. The integration of the pcDNA5/FRT expression construct into the Flp-In host cell line genome results in the transcription of the gene of interest. The stably transfected cells become hygromycin-resistant.
# One day prior to transfection, 200 000 Flp-In-CHO cells were seeded in Ham F-12 medium (Invitrogen, cat. no. 31765) supplemented with 10% fetal calf serum (FCS; Perbio Science, cat. no. SH30068.03) in a 6-well plate and incubated at 37° C./5% CO2 overnight. Using the FuGENE® 6 transfection reagent (Roche, cat. no. 11988387001), cells were cotransfected with the Flp recombinase expression plasmid pOG44 and a modified plasmid additionally containing the edg-1 gene (accession no. NM_001400) termed as pcDNA5-FRT-TO_nFLAG_DEST-EDG-1 with a 9:1 ratio. To obtain the modified pcDNA5-FRT-TO_nFLAG_DEST plasmid, the Invitrogen plasmid pcDNA5/FRT/TO (Invitrogen, cat. no. V6520-20) was adapted to the Gateway® (Invitrogen) cloning system by inserting a Gateway cassette containing attR recombination sites flanking a ccdB gene and a chloramphenicol-resistance gene (Gateway conversion system, Invitrogen, cat. no. 11828-029). In addition a FLAG tag epitope was added before the 5′ att recombination site to allow recombinant expression of N-terminally FLAG-tagged proteins.
# For the transfection of one well, 1.08 μg of pOG44 and 0.12 μg of pcDNA5-FRT-TO_nFLAG_DEST-EDG-1 were mixed to 100 μl of serum-free Ham F-12 medium containing 6 μl of FuGENE® 6 transfection reagent. After 20 min of incubation, the transfection reagent/DNA complex was distributed dropwise on the cells. The cells were incubated for 24 h at 37° C. Then the cells from 3 wells each were transferred to a T75 flask (Greiner Cellstar®, cat. no. 658175) containing Ham F-12 medium supplemented with 10% of FCS but without antibiotic and were incubated another 24 h. 48 h after transfection, the medium was replaced by selection medium (Ham F-12 supplemented with 10% of FCS and 300 μg/ml of hygromycin B (Invitrogen, cat. no. 10687-010)). The medium was exchanged every 2 to 3 days until a resistant population of cells had grown. […] After 2 weeks of selection, the cells were transferred into T175 flasks (Greiner Cellstar®, cat. no. 660175) and cultivated for batch production. Cells were harvested from the culture flasks by short treatment (2 to 5 min) with Accutase (PAA, cat. no. L11-007), resuspended in selection medium (see above) and centrifuged at 200×g for 5 min. Cells were resuspended in a mixture of 90% of FCS and 10% of dimethylsulfoxide and stored frozen in liquid nitrogen.
# A membrane preparation was obtained by standard methods from the afore-described CHO Flp-In cell line constitutively overexpressing the human Edg-1 receptor. Briefly, the cryopreserved cells were taken in culture and grown until confluency in T175 cell culture flasks (Becton Dickinson, cat. no. 35 5001). […]
# T1 sequence (P21453 whole entry): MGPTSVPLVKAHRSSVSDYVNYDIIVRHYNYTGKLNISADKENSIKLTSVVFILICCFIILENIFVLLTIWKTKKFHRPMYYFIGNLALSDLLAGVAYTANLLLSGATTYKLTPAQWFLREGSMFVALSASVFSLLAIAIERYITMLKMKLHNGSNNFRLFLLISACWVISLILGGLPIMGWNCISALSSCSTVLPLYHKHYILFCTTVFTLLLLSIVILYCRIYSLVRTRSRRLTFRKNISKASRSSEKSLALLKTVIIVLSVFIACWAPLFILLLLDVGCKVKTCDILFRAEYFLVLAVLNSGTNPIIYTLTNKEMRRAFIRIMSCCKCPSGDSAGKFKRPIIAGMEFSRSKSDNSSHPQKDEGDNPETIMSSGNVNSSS
row,SMILES,% Activation (Edg-1 receptor activation in percent of the activation by 10 μM S1P)
1,CCCOc1nc(CN2CCOCC2)nc2oc(-c3cncc(F)c3)nc12 [Example 39],82%
2,CCCOc1nc(CN2CCC(F)(F)CC2)nc2oc(-c3cncc(F)c3)nc12 [Example 40],123%
3,CCCOc1nc(CN2CCOCC2)nc2oc(-c3ccccc3)nc12 [Example 41],116%
4,CCCOc1nc(CN2CCC(F)(F)CC2)nc2oc(-c3ccccc3)nc12 [Example 42],92%
5,CCCOc1nc(CN2CCCOCC2)nc2oc(-c3ccccc3)nc12 [Example 43],122%
6,CCCOc1nc(CN2CCOCC2)nc2oc(-c3ccc(F)c(F)c3)nc12 [Example 66],107%
7,CCCOc1nc(CN2CCCOCC2)nc2oc(-c3ccc(F)c(F)c3)nc12 [Example 67],105%
8,CCCOc1nc(CN2CCC(F)(F)CC2)nc2oc(-c3ccc(F)c(F)c3)nc12 [Example 68],120%
9,CCCOc1nc(CN2CCOCC2)nc2oc(-c3ccnc(Cl)c3)nc12 [Example 71],116%
10,CCCOc1nc(CN2CCOCC2)nc2oc(-c3cccc(C(F)(F)F)c3)nc12 [Example 72],99%
11,CCCOc1nc(CN2CCC(F)(F)CC2)nc2oc(-c3cccc(C(F)(F)F)c3)nc12 [Example 73],120%
12,CCCOc1nc(CN2CCCOCC2)nc2oc(-c3cc(Cl)ccc3OC)nc12 [Example 74],114%
13,CCCOc1nc(CN2CCOCC2)nc2oc(-c3cc(Cl)ccc3OC)nc12 [Example 75],72%
14,CCCOc1nc(CN2CCC(F)(F)CC2)nc2oc(-c3cc(Cl)ccc3OC)nc12 [Example 76],104%
15,CCCOc1nc(CN2CCOCC2)nc2oc(-c3ccc(Cl)c(Cl)c3)nc12 [Example 77],112%
16,CCCOc1nc(CN2CCCOCC2)nc2oc(-c3ccc(Cl)c(Cl)c3)nc12 [Example 78],103%
17,CCCOc1nc(CN2CCC(F)(F)CC2)nc2oc(-c3ccc(Cl)c(Cl)c3)nc12 [Example 79],111%
18,CCCOc1nc(CN2CCCOCC2)nc2oc(-c3cc(OC)ccc3OC)nc12 [Example 80],65%
19,CCCOc1nc(CN2CCC(F)(F)CC2)nc2oc(-c3cc(OC)ccc3OC)nc12 [Example 81],83%
20,CCCOc1nc(CN2CCOCC2)nc2oc(-c3c(F)ccc(F)c3F)nc12 [Example 82],104%
21,CCCOc1nc(CN2CCC(F)(F)CC2)nc2oc(-c3c(F)ccc(F)c3F)nc12 [Example 83],111%
22,CCCOc1nc(CN2CCOCC2)nc2oc(-c3cc(F)c(F)cc3Cl)nc12 [Example 84],108%
23,CCCOc1nc(CN2CCCOCC2)nc2oc(-c3cc(F)c(F)cc3Cl)nc12 [Example 85],104%
24,CCCOc1nc(CN2CCCOCC2)nc2oc(-c3c(F)ccc(F)c3F)nc12 [Example 86],120%
25,CCCOc1nc(CN2CCC(F)(F)CC2)nc2oc(-c3cc(F)c(F)cc3Cl)nc12 [Example 87],92%
26,CCCOc1nc(CN2CCOCC2)nc2oc(-c3ccc(OC)c(F)c3)nc12 [Example 88],101%
27,CCCOc1nc(CN2CCOCC2)nc2oc(-c3ccc(Cl)c(F)c3)nc12 [Example 89],107%

# The next lines start with the values.
row,% Activation (Edg-1 receptor activation in percent of the activation by 10 μM S1P),SMILES
1,78%,CCCOc1nc(Cn2ccnn2)nc2oc(-c3cccc(F)c3)nc12 [Example 44]
2,69%,CCCOc1nc(CN2CCS(=O)(=O)CC2)nc2oc(-c3cccc(F)c3)nc12 [Example 45]
3,35%,CCCOc1nc(CN2CC[S+]([O-])CC2)nc2oc(-c3cccc(F)c3)nc12 [Example 46]
4,85%,CCCOc1nc(CN2CC(C)OC(C)C2)nc2oc(-c3cccc(F)c3)nc12 (stereo not drawn) [Example 47]
5,81%,CCCOc1nc(Cn2ccnc2C)nc2oc(-c3cccc(F)c3)nc12 [Example 48]
6,48%,CCCOc1nc(CN2CC3CC2CO3)nc2oc(-c3cccc(F)c3)nc12 (stereo not drawn) [Example 49]
7,102%,CCCOc1nc(CN2CCCC(F)(F)C2)nc2oc(-c3cccc(F)c3)nc12 [Example 50]
8,24%,CCCOc1nc(CN2CC(C(=O)O)C2)nc2oc(-c3cccc(F)c3)nc12 [Example 51]
9,35%,CCCOc1nc(CN2CC(C(=O)OC)C2)nc2oc(-c3cccc(F)c3)nc12 [Example 52]
10,69%,CCCOc1nc(CN2C(=O)CN(C)C2=O)nc2oc(-c3cccc(F)c3)nc12 [Example 53]
11,30%,CCCOc1nc(Cn2cnc(CO)c2)nc2oc(-c3cccc(F)c3)nc12 [Example 54]
12,22%,CCCOc1nc(CN2CCN(S(C)(=O)=O)CC2)nc2oc(-c3cccc(F)c3)nc12 [Example 55]
13,44%,CCCOc1nc(Cn2cnc(C(=O)OC)c2)nc2oc(-c3cccc(F)c3)nc12 [Example 56]
14,99%,CCCOc1nc(Cn2cnc(C)c2)nc2oc(-c3cccc(F)c3)nc12 [Example 57]
15,35%,CCCOc1nc(Cn2cc(C)cn2)nc2oc(-c3cccc(F)c3)nc12 [Example 58]
16,30%,CCCOc1nc(Cn2cnc(-c3ccccc3)c2)nc2oc(-c3cccc(F)c3)nc12 [Example 59]
17,64%,CCCOc1nc(Cn2cncc2C(=O)OC)nc2oc(-c3cccc(F)c3)nc12 [Example 60]
18,76%,CCCOc1nc(Cn2ccnc2)nc2oc(-c3cccc(F)c3)nc12 [Example 61]
19,94%,CCCOc1nc(CN2C(=O)COCC2=O)nc2oc(-c3cccc(F)c3)nc12 [Example 62]
20,102%,CCCOc1nc(CN2C(=O)CCCC2=O)nc2oc(-c3cccc(F)c3)nc12 [Example 63]
21,93%,CCCOc1nc(CN2CCSC2)nc2oc(-c3cccc(F)c3)nc12 [Example 64]
22,109%,CCCOc1nc(CN2CCSCC2)nc2oc(-c3cccc(F)c3)nc12 [Example 65]
23,113%,CCCOc1nc(CN2CCCC(F)C2)nc2oc(-c3cccc(F)c3)nc12 (stereo not drawn) [Example 69]
24,113%,CCCOc1nc(CN2CCC(F)CC2)nc2oc(-c3cccc(F)c3)nc12 [Example 70]
